“Also recorded” adds a separate entry of the source.
Experiments:
[1] = Pharmacokinetics of MI in Wistar rat model after oral administration (Antonowski and co-workers); format: in vivo; settings: rat serum; MI data of ref 30 vs SCI of this study
Procedure: Antonowski and co-workers examined the PK of MI in Wistar rat models.
Bioavailability studies in animal models are a critical step in evaluating how much of a substance is absorbed and becomes available in the body. A rat model is excellent to maximize the relevance of SCI to human health. Antonowski and co-workers used a rat model for the PK analysis of MI. In this study, a dose of 20 mg/kg MI was orally administrated to rats and afterwards, the serum concentration of MI was measured. […] Then, the concentration of MI began to decrease immediately. […] Studies should be extended to include intraperitoneal injection or direct injection into blood vessels to determine the bioactivity of these INSs.

[2] = cited from earlier work
[3] = parameters: method as in PMID 16250252; settings: male Sprague-Dawley rats; cited from earlier work

Row | Structure (SMILES) | AUC of MI compared with SCI [1] | Side effects of MI administration ([2]; oral MI) | Time of highest MI serum concentration (Cmax) after oral administration ([2]; serum, oral 20 mg/kg MI) | MI level 24 h after administration ([2]; serum, oral MI) | Relative bioavailability of oral administration compared to intraperitoneal injection [3]
1 | O[C@H]1[C@H](O)[C@@H](O)[C@H](O)[C@@H](O)[C@H]1O [MI, myo-inositol] | lower than for SCI | no serious side effects | first hour | still higher than before the administration; also recorded: still higher than before the supplementation | 
2 | O=C(O)[C@H]1O[C@@H](Oc2cc3oc(-c4ccc(O)cc4)cc(=O)c3c(O)c2O)[C@H](O)[C@@H](O)[C@@H]1O [scutellarin] |  |  |  |  | very low

Reference: article PMC12299890 (Pharmaceuticals, 2025)
